Experimental data as given in patent US9260466B2, “Use of a flavanol glycoside for suppressing activation of stellate cells” (Hong Kong Baptist University, priority 2013, dated 2016).
≈ marks a conversion by molar mass, not a printed value.

Assays:
Type in all cases: cell-based, rat
[1] = tested on: LTC-14 cells; assay: Immunofluorescent staining of α-SMA in TGF-β-stimulated LTC-14 cells; conditions: TGF-β 5 ng/mL, FIG. 1
Description: (§1) LTC-14 cells were cultured at 37° C. under a humidified condition of 95% air and 5% CO2 in Iscove's Modified Dulbecco's Medium (IMDM) supplemented with 10% fetal bovine serum (FBS). Cells used in all the experiment were among passages 9 to 25. LTC-14 cells were seeded at a density of 1×10^5/well in a 12-well plate, and incubated with recombinant TGF-β at 5 ng/mL and Eruberin A at 0, 0.5, 1, 5, 10 and 20 μg/mL in serum-free IMDM for 24 hours. Cells were then harvested for mRNA and protein extraction or subjected to Sirius Red/Fast Green staining or immunofluorescent staining.
For immunofluorescent staining of α-SMA, LTC-14 cells were seeded at a density of 1×10^5 onto the poly-L-lysine-coated cover slips in a 24-well plate, incubated with TGF-β at 5 ng/mL and Eruberin A at 0, 0.5, 1, 5, 10 and 20 μg/mL in serum-free IMDM for 24 hours. Cells were then fixed, blocked with 3% bovine serum albumin (BSA), probed with antibodies and mounted with fluorescence mounting medium containing 4′,6-diamidino-2-phenylindole (DAPI). Images were captured using the Nikon microscope and analyzed by the SPOT advanced software.

[2] = tested on: LTC-14 cells; assay: Western blotting of α-SMA and FN1 proteins in TGF-β-stimulated LTC-14 cells; conditions: TGF-β 5 ng/mL, Eruberin A 0.5-20 μg/mL, 24 hours, serum-free medium, FIG. 2
Description: as §1
(§2) Cytoplasmic and nuclear protein fractions of the LTC-14 cells were extracted using specific lysis buffers containing protease inhibitors. Cell lysates were loaded and separated by SDS-polyacrylamide gel electrophoresis. After wet electroblotting, proteins were transferred onto PVDF membranes (Bio-Rad), blocked with 5% non-fat milk, probed with antibodies and visualized by utilization of an ECL kit (GE Healthcare).

[3] = tested on: LTC-14 cells; assay: Sirius Red/Fast Green collagen staining of LTC-14 cells; conditions: TGF-β 5 ng/mL, Eruberin A 10 μg/mL, p<0.05 vs TGF-β alone, FIG. 3
Description: as §1
Amounts of collagen and non-collagenous proteins in LTC-14 cells were measured using the Sirius Red/Fast Green collagen staining kit (Chondrex Inc.) according to the manufacturer's instruction.

[4] = tested on: LTC-14 cells; assay: Real-time quantitative PCR of fibrotic mediator mRNA in TGF-β-stimulated LTC-14 cells; conditions: TGF-β 5 ng/mL, 24 hours
Description: as §1
mRNA samples from LTC-14 cells were extracted using Trizol reagent and subjected to a reverse transcription for cDNA synthesis. The synthesized cDNA was applied to amplifications with rat-specific primers for Tgf-β, Acta2, Col I-α1 and Fn1 in the ABI ViiA 7 real-time PCR system (Applied Biosystems) using 2×SYBR Green PCR Master Mix (Applied Biosystems). The Ct value of gene of interest was normalized to the endogenous reference Gapdh and presented as 2^−ΔΔCt using the comparative Ct method.

[5] = tested on: LTC-14 cells; assay: MTT cell proliferation assay; conditions: Eruberin A in the range of 0 to 20 μg/mL; results not shown
[6] = tested on: NF-κB; assay: Western blotting of nuclear translocation of NF-κB in LTC-14 cells; conditions: compared to the TGF-β-treated control, FIG. 5
Description: as §1, §2

[7] = Eruberin A 0.5-20 μg/mL, FIG. 4

IC50 ([4]; Rattus norvegicus, read-out: IC50 based on suppressive effects on the mRNA expression of α-SMA): ~10 µg/mL (≈ 21.7 µM)
SMILES: COc1ccc(C2C[C@@H]3OC4C(Oc5c(C)c(O)c(C)c(c53)O2)OC(CO)C(O)C4O)cc1 (stereo partly drawn) [Eruberin A]
TGF-β-stimulated α-SMA expression (immunofluorescence) ([1]; 24 hours): significantly attenuated
immunoreactivities of α-SMA ([1]; Eruberin A at 10 μg/mL): sufficiently suppress
TGF-β-provoked elevation of FN1 protein [2]: effectively attenuated
TGF-β-provoked elevation of α-SMA protein [2]: effectively attenuated
production of collagen (ratio of Sirius Red-stained collagenous to Fast Green-stained non-collagenous proteins) [3]: notably suppressed
TGF-β-elevated mRNA expression level of Acta2 [4, 7]: significantly and dose-dependently suppressed
TGF-β-elevated mRNA expression level of Col I-α1 [4, 7]: significantly and dose-dependently suppressed
TGF-β-elevated mRNA expression level of Fn1 [4, 7]: significantly and dose-dependently suppressed
TGF-β-elevated mRNA expression level of Tgf- [4, 7]: significantly and dose-dependently suppressed
cytotoxicity (MTT cell proliferation assay) [5]: no notable cytotoxicity
nuclear translocation of NF-κB [6]: significantly decreased
